Laboratory results from patent US20050019742A1, “Methods for assessment of platelet aggregation” (priority 2002, published 2005).
Where a SMILES comes first, the peptide text is derived from it. Bridges are numbered along the chain shown (N, C = ends). [ ]: non-standard residue; d: D form. hArg = N=C(N)NCCCC[C@H](N)C(=O)O; Mpa = O=C(O)CCS

B1: Reopro: antibody based GPIIbIIIa antagonist (antibody, chains of the INN, looked up, V domains shown)
VH: EVQLQQSGTVLARPGASVKMSCEASGYTFTNYWMHWVKQRPGQGLEWIGAIYPGNSDTSYIQKFKGKAKLTAVTSTTSVYMELSSLTNEDSAVYYCTLYDGYYVFAYWGQGTLVTVSA
VL: EIVLTQSPVTLSVTPGDSVSLSCRASRDISNNLHWFQQTSHESPRLLIKYASQSMSGIPSRFSGSGSGTDFTLSINSVETEDFGMYFCQQTNSWPYTFGGGTKLEIK
modifications: Fab
notes: antibody based GPIIbIIIa antagonist

Assays:
platelet aggregation [1] = assay: Light transmission aggregometry (LTA) in PPACK platelet rich plasma, ADP-induced aggregation; type: cell-based, human; conditions: samples in which Ultegra measures inhibition of 80% or greater, average lower end of a range reaching greater than 80%, ADP 20 μM
Procedure: Sufficient blood volume was collected to complete matched comparisons for each donor in all three assays. Using a 19 g butterfly needle, blood was collected by venipuncture into a plastic syringe and transferred to a tube containing PPACK anticoagulant (0.3 mM final concentration) or into PPACK vacuettes provided by Ultegra®. An EDTA baseline tube was also drawn per Plateletworks® recommendation. One 10 mL sample of PPACK blood was centrifuged at 135 g for 15 minutes to obtain platelet rich plasma (“PRP”) for use in traditional light transmission aggregometry. The residual blood from this tube was centrifuged at 1500 g for 15 minutes to obtain platelet poor plasma (“PPP”). PRP was diluted to 250,000/mm^3 with autologous PPP. Diluted PRP (0.5 ml) was added to an aggregation cuvette and placed into the 37° C. aggregation chamber. Eptifibatide (125-4000 nM) or tirofiban (25-200 nM) was added to PRP, incubated for at least two minutes. 50 μl ADP (20 μM final concentration) was added to 0.45 ml PRP and the aggregation response was recorded. A baseline aggregation response (no antagonist present) was determined for each donor. Percent aggregation was calculated at the point of maximum light transmission obtained within five minutes. Percent inhibition of aggregation (IPA) was calculated using the following formula: [formula]

platelet aggregation [2] = assay: ICHOR/Plateletworks whole blood platelet aggregation (platelet count), PPACK anticoagulant, ADP agonist; type: cell-based, human; conditions: for platelet inhibition measured by ICHOR/Plateletworks: samples in which Ultegra measures inhibition of 80% or greater, average lower end of a range reaching greater than 80%, PPACK whole blood, ADP 20 μM
Procedure: Whole blood platelet aggregation was performed using a procedure modified from that outlined in the Helena Plateletworks® brochure. PPACK anticoagulant was used instead of citrate due to the well-documented effect of citrate overestimating the level of platelet inhibition by all currently approved GPIIb-IIIa antagonists (Phillips et al., “Effect of Ca^++ on Integrilin™ GPIIb-IIIa Interactions: Enhanced GPIIb-IIIa Binding and Inhibition of Platelet Aggregation by Reductions in the Concentration of Ionized Calcium in Plasma Anticoagulated with Citrate,” Circulation 96:1488-1494 (1997); Nannizzi-Alaimo et al., “Effect of Citrate Anticoagulation and Platelet Agonist Concentration on the Inhibitory Activities of GPIIb-IIIa Antagonists,” Circulation 100:1710 (1999); Kereiakes et al., “Differential Effects of Citrate Versus PPACK Anticoagulation on Measured Platelet Inhibition by Abciximab, Eptifibatide and Tirofiban,” J. Thromb. Thrombolysis 12:123-127 (2001); Jennings et al., “The Pharmacodynamics of Parenteral Glycoprotein IIb/IIIa Inhibitors,” J. Interv. Cardiol. 15(1):45-60 (2002), each of which is hereby incorporated by reference in its entirety). For this assay, 1.0 ml of PPACK anticoagulated whole-blood was mixed with increasing concentrations of eptifibatide or tirofiban and incubated for at least 2 minutes. After addition of ADP (20 μM), the tube was inverted 15-20 times to ensure mixing, and the platelet count was performed immediately (test sample). A baseline tube was also drawn and handled exactly as the antagonist sample tube minus the addition of agonist. A platelet count was also performed on blood collected into EDTA per the manufacturer's instructions. Percent inhibition of platelet aggregation was obtained from the platelet inhibition/aggregation calculation wheel provided with Plateletworks®.
When testing samples containing Reopro, the ICHOR instrument never achieves more than 60% inhibition of aggregation. […]

Row | Molecule | platelet inhibition measured by LTA (platelet aggregation [1]) | platelet inhibition measured by ICHOR/Plateletworks (platelet aggregation [2]) | inhibition of aggregation (maximum achieved on ICHOR instrument) (platelet aggregation [2]; samples containing Reopro, microaggregates are counted as aggregation)
1 | N=C(N)NCCCC[C@@H]1NC(=O)CCSSC[C@@H](C(N)=O)NC(=O)[C@@H]2CCCN2C(=O)[C@H](Cc2c[nH]c3ccccc23)NC(=O)[C@H](CC(=O)O)NC(=O)CNC1=O [eptifibatide] ([Mpa][hArg]GDWPC-NH2; disulfide 1-7) | ≥ 30% | ≥ 30% | 
2 | CCCCS(=O)(=O)N[C@@H](Cc1ccc(OCCCCC2CCNCC2)cc1)C(=O)O [tirofiban] | ≥ 35% | ≥ 35% | 
3 | B1 |  |  | ≤ 60%
